Results: patent US10563197B2, “Use of a combination of Dbait molecule and PARP inhibitors to treat cancer” (INSTITUT CURIE, priority 2015, dated 2020)

Columns and labels:
BC227 = test: Cell survival, trypan blue counting; type: cell-based, human; conditions: 4.80 μM of AsiDNA and/or 0.1 μM of Ola; day 6 after treatment; listed as Ola
Experimental: (§2) Cells were grown according to the supplier's instructions. Cell lines were maintained at 37° C. in a humidified atmosphere at 5% CO2.
(§3) AsiDNA or PARPi cytotoxicity was measured by relative survival and cell death quantification. Adherent cells were seeded in 24-well culture plates at appropriate densities and incubated 24 hours at 37° C. before AsiDNA and/or PARPi addition. Cells were harvested day 6aftertreatment, stained with 0.4% trypan blue (Sigma Aldrich, Saint-Louis, USA) and counted with a Burker chamber. Cell survival was calculated as ratio of living treated cells to living mock-treated cells. Cell death was calculated as the number of dead cells on the total number of counted cells. Additivity of the toxicity was calculated by the product of cell survivals to AsiDNA and cell survivals to PARPi.

SK28 Lsh CTL = test: Cell survival, trypan blue counting; type: cell-based, human; conditions: 4.80 μM of AsiDNA and/or 0.1 μM of Ola; day 6 after treatment
Jurkat = test: Cell survival, trypan blue counting; type: cell-based, human; conditions: 4.80 μM of AsiDNA and/or 0.1 μM of Ola; day 6 after treatment
Experimental: as §2, §3

HeLa BRCA1 SX = test: Cell survival, trypan blue counting; type: cell-based, human; conditions: 4.80 μM of AsiDNA and/or 0.1 μM of Ola; day 6 after treatment
Experimental: as §2, §3

53BP1 and Rad51 foci = 53BP1 and Rad51 foci immunostaining in MDAMB231 cells; type: cell-based, human; conditions: MDAMB231, 24 h, 16 μM AsiDNA +/− 1 μM olaparib
Experimental: FIG. 9: Effect of the combined treatment AsiDNA and olaparib on DNA repair. Representative images of γH2AX (red) and Rad51 or 53BP1 (green) foci in MDAMB231 (A) or MCF10 (C) cells treated 24 h with Ola and/or AsiDNA. (B, D) Numbering of 53BP1 and Rad51 foci in 100 MDAMB231 cells (B) or MCF10A cells (D) 24 h after Ola and/or AsiDNA treatment. Red bars represent the mean values. (E, F) DNA damage monitored by alkaline comet assay 24 h after Ola and/or AsiDNA treatment in MDAMB231 (E) or MCF10A (F) cells. ns: not significant; *: p<0.05; ****: p<0.0001.
FIG. 10: AsiDNA inhibits irradiation-induced 53BP1 foci. Numbering of 53BP1 foci in 100 MDAMB231 cells 2 h after 10Gy irradiation, 22 h after prior treatment with AsiDNA and/or Ola. Red bars represent the mean values. *: p<0.05; **: p<0.01; ****: p<0.0001.
For immunostaining, MDAMB231 cells are seeded on cover slips (Menzel, Braunschweig, Germany) at a concentration of 5×10^5 cells and incubated at 37° C. during 1 day. Cells are then treated with 16 μM AsiDNA+/−1 μM olaparib. 24 h after treatment, cells are fixed for 20 min in 4% paraformaldehyde/Phosphate-Buffered Saline (PBS 1×), permeabilized in 0.5% Triton X-100 for 10 min, blocked with 2% bovine serum albumin/PBS 1× and incubated with primary antibody for 1 h at 4° C. […]

HCT116 KU70^+/− = test: Cell survival, trypan blue counting; type: cell-based, human; conditions: 4.80 μM of AsiDNA and/or 0.1 μM of Ola; day 6 after treatment
Experimental: as §2, §3

HeLa CTL SX = test: Cell survival, trypan blue counting; type: cell-based, human; conditions: 4.80 μM of AsiDNA and/or 0.1 μM of Ola; day 6 after treatment
Experimental: as §2, §3

SK28 Lsh DNA-PKcs = test: Cell survival, trypan blue counting; type: cell-based, human; conditions: 4.80 μM of AsiDNA and/or 0.1 μM of Ola; day 6 after treatment
Experimental: as §2, §3

Hep2 = test: Cell survival, trypan blue counting; type: cell-based, human; conditions: 4.80 μM of AsiDNA and/or 0.1 μM of Ola; day 6 after treatment
Experimental: as §2, §3

HeLa CTL KD = test: Cell survival, trypan blue counting; type: cell-based, human; conditions: 4.80 μM of AsiDNA and/or 0.1 μM of Ola; day 6 after treatment
Experimental: as §2, §3

HCC1187 = test: Cell survival, trypan blue counting; type: cell-based, human
Experimental: (§1) Cells were grown according to the supplier's instructions.

MDAMB231 = test: Cell survival, trypan blue counting; type: cell-based, human
Experimental: as §1

MO59J = test: Cell survival, trypan blue counting; type: cell-based, human; conditions: 4.80 μM of AsiDNA and/or 0.1 μM of Ola; day 6 after treatment
Experimental: as §2, §3

IM9 = test: Cell survival, trypan blue counting; type: cell-based, human; conditions: 4.80 μM of AsiDNA and/or 0.1 μM of Ola; day 6 after treatment
Experimental: as §2, §3

MO59K = test: Cell survival, trypan blue counting; type: cell-based, human; conditions: 4.80 μM of AsiDNA and/or 0.1 μM of Ola; day 6 after treatment
Experimental: as §2, §3

[1] = test system: mutants with one repair defect (PARP1, BRCA1, BRCA2, Ku70, DNA-PKcs); test: Single treatments in isogenic pairs with DNA repair mutants; conditions: 4.80 μM AsiDNA or 0.1 μM Ola
Experimental: To determine if the efficacy of the combination of AsiDNA with Ola was not restricted to BC, the inventors analyzed the sensitivity of different cancer cell lines including glioblastoma, cervical cancer, colon cancer, blood cancer and melanoma.
as §2, §3

XRCC1 = test: XRCC1-eYFP recruitment to laser damage sites in MDAMB231 cells; type: cell-based, human; conditions: MDAMB231, 24 h of treatment with Ola (1 μM) and/or AsiDNA (16 μM)
Experimental: FIG. 8: Olaparib inhibits XRCC1 recruitment to damage sites independently of AsiDNA. (A) Representative images of XRCC1-eYFP recruitment 40 secondes after laser damage and (B) kinetic of XRCC1-eYFP recruitment in MDAMB231 cells after 24 h of treatment with Ola (1 μM) and/or AsiDNA (16 μM). ns: not significant; ****: p<0.0001. These experiments were performed with a Leica SP5 confocal system, attached to a DMI6000 stand using a 63/1.4 objective, under a controlled environment (37° C., 5% CO2). All records were made using the appropriate sampling frequency (512_512 images, line average of four and zooming set to eight) and an argon laser line (514 nm for YFP) adapted to the fluorescent protein of interest. In the first step, two images were acquired within a period of 2-3 s at a laser energy setting sufficiently low not to induce any photodynamic damage. The 405-nm laser line (diode) was then set to maximum output for 100 ms and focused onto a single spot of constant size (176 nm) within the nucleus to cause a point of photo damage with a reproducible amount of energy. Recruitment of the protein of interest was then monitored by fluorescence using the same setting as for the pre-damage sequence. Laser damage was induced 24 h after treatment with AsiDNA (16 μM), olaparib (1 μM) or both. Images were captured at 2 s intervals for the following 52 s. […]

[2] = 0.1 μM Ola, 4.8 μM AsiDNA, sensitive = difference in % dead cells higher than two-fold
[3] = 4.80 μM of AsiDNA and/or 0.1 μM of Ola, day 6 after treatment

O=C(c1cc(Cc2n[nH]c(=O)c3ccccc23)ccc1F)N1CCN(C(=O)C2CC2)CC1 [Olaparib, 4-[(3-[(4-cyclopropylcarbonyl)piperazin-4-yl]carbonyl)-4-fluorophenyl]methyl(2H)-phthalazin-1-one]
Survival (%/NT) (BC227): 75.3 %/NT | Survival (%/NT) (SK28 Lsh CTL): 80.6 %/NT | Survival (%/NT) (Jurkat): 68.4 %/NT | Survival (%/NT) (HeLa BRCA1 SX): 71.4 %/NT | γH2AX, 53BP1 and Rad51 foci in the absence of DNA damaging treatment (53BP1 and Rad51 foci): induces the accumulation of DSBs | Survival (%/NT) (HCT116 KU70^+/−): 88.6 %/NT | Survival (%/NT) (HeLa CTL SX): 105.1 %/NT | Survival (%/NT) (SK28 Lsh DNA-PKcs): 80.9 %/NT | Survival (%/NT) (Hep2): 101 %/NT | Survival (%/NT) (HeLa CTL KD): 97.2 %/NT | sensitivity to treatment (HCC1187; [2]): sensitive only to Ola | Survival (%/NT) (HCC1187; [3]): 61.5 %/NT | sensitivity to treatment (MDAMB231; [2]): resistant to both treatments | Survival (%/NT) (MDAMB231; [3]): 90.9 %/NT | IC20 (MDAMB231; Homo sapiens, MDA-MB-231, MDAMB231, PARPi dose giving 80% survival): 1000 nM | IC50 (MDAMB231; Homo sapiens, MDA-MB-231, MDAMB231, PARPi dose resulting in 50% survival): 3700 nM | Survival (%/NT) (MO59J): 87.5 %/NT | Survival (%/NT) (IM9): 84.6 %/NT | Survival (%/NT) (MO59K): 117.3 %/NT | cytotoxicity of single treatments to DNA repair mutants [1]: essentially restricted to the BRCA mutants | XRCC1 foci recruitment (XRCC1): significantly delayed
